The nature of this data set: Cytotoxicity in MDCK cells assessed as reduction in cell viability incubated for 72 hrs by cell-titer-Glo cell viability assay. The format is cell-based, Canis lupus familiaris. The conditions noted are these: dog.

Where a SMILES comes first, the peptide text is derived from it. [ ]: non-standard residue; d: D form. The star is where a group is joined. Palmitoyl = CCCCCCCCCCCCCCCC(=O)*; βAla = NCCC(=O)O

By CC50 is commonly meant the concentration at which the toxic effect on the cells reaches its halfway point. With `CCCCCCCCCCCCCCCC(=O)NCCCC[C@H](NC(=O)CCNC(=O)[C@H](CCCCN)NC(=O)[C@H](CCCCN)NC(=O)[C@H](CO)NC(=O)[C@@H](NC(=O)[C@H](CCC(=O)O)NC(=O)[C@H](CCC(=O)O)NC(=O)[C@@H](NC(=O)[C@H](CCCCN)NC(=O)[C@H](CCCCN)NC(=O)[C@H](CO)NC(=O)[C@@H](NC(=O)[C@H](CCC(=O)O)NC(=O)[C@H](CCC(=O)O)NC(=O)[C@@H](NC(=O)[C@H](CCCCN)NC(=O)[C@H](CCCCN)NC(=O)[C@H](CO)NC(=O)[C@@H](NC(=O)[C@H](CCC(=O)O)NC(=O)[C@H](CCC(=O)O)NC(=O)[C@@H](NC(=O)[C@H](CCCCN)NC(=O)[C@H](CCCCN)NC(=O)[C@H](CO)NC(=O)[C@@H](NC(=O)[C@H](CCC(=O)O)NC(=O)[C@H](CCC(=O)O)NC(=O)[C@@H](NC(=O)[C@H](CCCCN)NC(=O)[C@H](CCCCN)NC(=O)[C@H](CO)NC(=O)[C@@H](NC(=O)[C@H](CCC(=O)O)NC(=O)[C@H](CCC(=O)O)NC(=O)[C@@H](NC(C)=O)[C@@H](C)CC)[C@@H](C)CC)[C@@H](C)CC)[C@@H](C)CC)[C@@H](C)CC)[C@@H](C)CC)[C@@H](C)CC)[C@@H](C)CC)[C@@H](C)CC)[C@@H](C)CC)C(N)=O` (Ac-IEEISKKIEEISKKIEEISKKIEEISKKIEEISKK[βAla]K(Palmitoyl)-NH2), the CC50 at 72 h was > 100 µM. In the case of `CCCCCCCCCCCCCCCC(=O)NCCCC[C@H](NC(=O)CCNC(=O)[C@H](CCCCN)NC(=O)[C@H](CCCCN)NC(=O)[C@H](Cc1ccc(O)cc1)NC(=O)[C@@H](NC(=O)[C@H](CCC(=O)O)NC(=O)[C@H](CCC(=O)O)NC(=O)[C@@H](NC(=O)[C@H](CCCCN)NC(=O)[C@H](CCCCN)NC(=O)[C@H](Cc1ccc(O)cc1)NC(=O)[C@@H](NC(=O)[C@H](CCC(=O)O)NC(=O)[C@H](CCC(=O)O)NC(=O)[C@@H](NC(=O)[C@H](CCCCN)NC(=O)[C@H](CCCCN)NC(=O)[C@H](Cc1ccc(O)cc1)NC(=O)[C@@H](NC(=O)[C@H](CCC(=O)O)NC(=O)[C@H](CCC(=O)O)NC(=O)[C@@H](NC(=O)[C@H](CCCCN)NC(=O)[C@H](CCCCN)NC(=O)[C@H](Cc1ccc(O)cc1)NC(=O)[C@@H](NC(=O)[C@H](CCC(=O)O)NC(=O)[C@H](CCC(=O)O)NC(=O)[C@@H](NC(=O)[C@H](CCCCN)NC(=O)[C@H](CCCCN)NC(=O)[C@H](Cc1ccc(O)cc1)NC(=O)[C@@H](NC(=O)[C@H](CCC(=O)O)NC(=O)[C@H](CCC(=O)O)NC(=O)[C@@H](NC(C)=O)[C@@H](C)CC)[C@@H](C)CC)[C@@H](C)CC)[C@@H](C)CC)[C@@H](C)CC)[C@@H](C)CC)[C@@H](C)CC)[C@@H](C)CC)[C@@H](C)CC)[C@@H](C)CC)C(N)=O` (Ac-IEEIYKKIEEIYKKIEEIYKKIEEIYKKIEEIYKK[βAla]K(Palmitoyl)-NH2), the CC50 at 72 h is > 100 µM.

The record behind these values is ChEMBL document CHEMBL4196194, “De Novo Design of α-Helical Lipopeptides Targeting Viral Fusion Proteins: A Promising Strategy for Relatively Broad-Spectrum Antiviral Drug Discovery” (J Med Chem, 2018).
